Experimental data published in US10975069B2, “Sigma-2 receptor ligand drug conjugates as antitumor compounds, methods of synthesis and uses thereof” (priority 2014, dated 2021).
Several values for one entry are separate records, joined by “and”; a condition that tells them apart may be missing. Equal entries are not always repeated.

Legend:
[1] = Toxicity study (necropsy, CBC, clinical chemistry) in tumor bearing mice; assay type: in vivo, C57BL/6 mice
Procedure: Six adult female mice were submitted to necropsy. The strain designation of the mice was C57BL/6. […]
Animal studies were performed according to the animal studies protocol approved by Washington University Institutional Animal Care Facility. In vivo studies with mice were performed to compare the effects of SW V-49s, SV119. Erastin, a combination of SV119 with Erastin, and vehicle. […] C57BL/6 mice (6 weeks old. National Cancer Institute Laboratories) were injected in the right flank with 200 μL single cell suspension of KCKO cells in RPMI medium (25×10^4/10^5 cells per mouse). Mice were randomized into four groups (n=15). Treatment was started when the mean tumor diameter was ^˜5 mm. […] Erastin, equimolar mix of SV119 and Erastin. Tumors were measured every other day with a digital caliper. Several mice from different treatment groups were sent to the Division of Comparative Medicine in our institution for pathologic evaluation. Blood was collected for complete blood count (CBC) and biochemical analysis (AST, ALT, BUN, total bilirubin, and Cr). Organs were examined grossly and histologically.

[2] = system: SYO-1 Synovial sarcoma (SS) xenografts; assay: SYO-1 synovial sarcoma xenograft; assay type: in vivo, athymic nude mice; conditions: 300 nmoles for 14 days; FIG. 14E
Procedure: SYO-1 Synovial sarcoma (SS) xenografts were also treated with 300 nmoles SW V-49. […] FIG. 14E depicts athymic nude mice xenograft of SS cell line SYO-1 treated with SW V-49 (300 nmoles) for 14 days and then followed, p<0.0001. SYO xenografts required a smaller dose of SW V-49 to achieve results similar to those achieved against PDAC.

[3] = system: KCKO mouse pancreatic tumors; assay: Syngeneic subcutaneous KCKO pancreatic tumor model; assay type: in vivo, C57BL/6 mice
From the text: FIG. 7 illustrates changes in mean tumor volume (in mm^3) following administration to interval of C57BL/6 mice with established, syngeneic, subcutaneous KCKO mouse pancreatic tumors over a period of 10 days for SW V-49s. Erastin, SV119, a mixture of Erastin and SV119, and a vehicle control. […] Note in FIG. 7 the decrease in tumor volume from approx. 40 mm^3 to approx. 20 mm^3 in SW V 49s-treated mice, compared to an increase from approx. 40 mm^3 to approx. 140 mm^3 for other treatments.
In these experiments, in a survival study of the mice reported in Example 9, the group which received SW V-49s survived at 100% (FIG. 8). In all other groups, the mean survival clustered at around 18 days.
Animal studies were performed according to the animal studies protocol approved by Washington University Institutional Animal Care Facility. In vivo studies with mice were performed to compare the effects of SW V-49s, SV119. Erastin, a combination of SV119 with Erastin, and vehicle. The vehicle used in the in vivo studies is a mixture of 25% cremophor and 75% H2O. C57BL/6 mice (6 weeks old. National Cancer Institute Laboratories) were injected in the right flank with 200 μL single cell suspension of KCKO cells in RPMI medium (25×10^4/10^5 cells per mouse). Mice were randomized into four groups (n=15). Treatment was started when the mean tumor diameter was ^˜5 mm. Mice received daily intra peritoneal injections with 375 nmoles in 100 μL/dose of SW V-49s and vehicle for 10 days SV119. Erastin, equimolar mix of SV119 and Erastin. Tumors were measured every other day with a digital caliper. Several mice from different treatment groups were sent to the Division of Comparative Medicine in our institution for pathologic evaluation. Blood was collected for complete blood count (CBC) and biochemical analysis (AST, ALT, BUN, total bilirubin, and Cr). Organs were examined grossly and histologically.

caspase 9 = assay: CASPASE-GLO caspase 9 assay in AsPC-1 cells; assay type: cell-based, human; conditions: 4 μM, 24 hours, DMSO baseline, FIG. 12B
Procedure: In these experiments, caspase-3/7.8 and 9 activities were measured In AsPC-1 cells using the corresponding CASPASE-GLO® Assay according to the manufacturer's instructions (Promega, Madison. Wis.). This assay is based on a caspase-specific substrate, which is cleaved to release aminoluciferin, a substrate of luciferase that results in caspase-specific luminescence signals. Cells were seeded at a density of 2×10^4 in white 96-well, clear bottom plates for 24 hours before treatment with 4 μM of compounds. The contents were then mixed using a plate shaker for 30 seconds, thereafter incubated at room temperature for 90 minutes. Luminescence signal was measured using a multi-mode microplate reader (BioTek). Assay was performed in triplicates, and the caspase activity of DMSO was considered as a base line.
The present inventors have shown that SV119 induces caspase-3 dependent apoptosis (Kashiwagi, H., el al. Mol Cancer 2007; 6:48). In these experiments, AsPC-1 cells were treated with 4 μM of SW V-49s. SV119, Erastin, and equimolar mixture of SV119 and Erastin for 24 hours. Using CASPASE-GLO® Assays, Caspase-3 level was measured to assess the activity of SW 119 domain of the SW V-49s compound and Caspase-8 and 9 levels were measured to identify which apoptotic pathway was involved.

[4] = Table 2, individual mouse, listed as test drug
[5] = Table 3 differential, individual mouse
[6] = Table 3 differential, individual mouse, listed as test drug
[7] = Table 4, individual mouse, listed as test drug
[8] = Table 6, individual mouse (Drug 1-3), treated 10 days
[9] = Table 7, individual mouse (Drug 1-3), treated 10 days
[10] = daily i.p. 375 nmoles for 10 days

For `CCOc1ccccc1-n1c(CN2CCN(C(=O)COc3ccc(CNCCCCCCN4C5CCCC4CC(OC(=O)Nc4cc(C)ccc4OC)C5)cc3)CC2)nc2ccccc2c1=O.O=C(O)C(=O)O` (stereo not drawn) [SW V-49s], the WBC ([1]; Table 2, individual mouse, daily i.p. over 2 weeks, listed as test drug) was 5.68 10^3/μL and 3.34 10^3/μL and 4.16 10^3/μL, the Platelets ([1]; Table 2, individual mouse, * mild platelet clumping, listed as test drug) was 749* 10^3/μL and 885 10^3/μL and 611 10^3/μL and the HGB [1, 4] was 10.7 g/dL and 10.5 g/dL and 9.8 g/dL. The MCH [1, 4] was 12.3 pg and 12.5 pg and 12.8 pg, the MCHC [1, 4] was 27.2% and 24.8% and 26.0% and the MCV [1, 4] was 45.3 u and 50.5 u and 49.2 u. For the same compound, the PCV [1, 4] was 39.3% and 42.4% and 37.7%, the RBC [1, 4] was 8.67 10^6/μL and 8.40 10^6/μL and 7.66 10^6/μL and the Bands [1, 5] was 0%. The Basophils [1, 5] was 0%, the Eosinophils [1, 5] was 0% and the Nrbe [1, 5] was 0%. For the same compound, the Lymphocytes [1, 6] was 96% and 78% and 87%, the Monocytes [1, 6] was 2% and 4% and 0% and the Neutrophils [1, 6] was 2% and 18% and 13%. For the same compound, the ALT [1, 7] was 138 u/L and 64 u/L and 63 u/L, the AST [1, 7] was 167 u/L and 147 u/L and 55 u/L and the BUN [1, 7] was 19 mg/dL and 22 mg/dL and 17 mg/dL. The Creatinine [1, 7] was 0.22 mg/dL and 0.21 mg/dL and 0.24 mg/dL, the Glucose [1, 7] was 178 mg/dL and 310 mg/dL and 180 mg/dL and the “Total Protein” value [1, 7] was 5.1 g/dL (2×) and 5.7 g/dL. For the same compound, the HGB [1, 8] was 9.8 g/dL and 10.7 g/dL and 10.5 g/dL, the MCH [1, 8] was 12.8 pg and 12.3 pg and 12.5 pg and the MCHC [1, 8] was 26.0% and 27.2% and 24.8%. The MCV [1, 8] was 49.2 u and 45.3 u and 50.5 u, the PCV [1, 8] was 37.7% and 39.3% and 42.4% and the Platelets [1, 8] was 611 10^3/μL and 749 10^3/μL and 885 10^3/μL. For the same compound, the RBC [1, 8] was 7.66 10^6/μL and 8.67 10^6/μL and 8.40 10^6/μL, the WBC [1, 8] was 4.16 10^3/μL and 5.68 10^3/μL and 3.34 10^3/μL and the ALT [1, 9] was 138 μ/L and 64 μ/L and 63 μ/L. For the same compound, the AST [1, 9] was 167 μ/L and 147 μ/L and 55 μ/L, the BUN [1, 9] was 19 mg/dL and 22 mg/dL and 17 mg/dL and the Creatinine [1, 9] was 0.22 mg/dL and 0.21 mg/dL and 0.24 mg/dL. The Glucose [1, 9] was 178 mg/dL and 310 mg/dL and 180 mg/dL, the “Total Protein” value [1, 9] was 5.1 g/dL (2×) and 5.7 g/dL and the “mice behavior and drug-related deaths” value [1, 10] was “no gross abnormalities in the mice behavior (grooming) or any drug-related deaths were recorded”. The “organs analyses (brain, heart, lungs, alimentary tract, kidneys, liver and pancreas), adverse drug effects” value [1, 10] was “did not reveal any obvious signs of adverse drug effects, except a mild peritonitis”, the “serum labs (CBC, AST, ALT, BUN, total bilirubin, and Cr)” value [1, 10] was “unchanged” and the “histopathologic finding in drug-treated versus control animals” value ([1]; daily i.p. over 2 weeks) was “minimal to moderate chronic peritonitis”. The Body weight ([1]; pre-necropsy, individual mouse, daily i.p. over 2 weeks, listed as test drug) was 21 grams and 19 grams and 22 grams, the “differences in cell counts (CBC) versus vehicle” value ([1]; treated for 10 days, Table 6) was “not statistically significant” and the tumor growth [2] was “Growth inhibition”. The “change in tumor volume” value ([3]; 10 days, p<0.05, FIG. 7) was “significant decrease in tumor volume”, the “effect on mean tumor volume / tumor growth” value ([3]; daily i.p. 375 nmoles for 10 days, FIG. 14A) was “capable of reducing the mean tumor volume” and the median survival ([3]; daily i.p. 375 nmoles for 10 days, Kaplan-Meier, FIG. 14B) was 48 days. For the same compound, the “mean tumor volume at end of treatment” value ([3]; over a period of 10 days, from approx. 40 mm^3 at start, FIG. 7) was “approx. 20 mm^3”, the survival ([3]; survival study, FIG. 8) was 100% and the “caspase-9 fold above baseline” value (caspase 9) was 3.2 fold.
